Measurements as given in PubChem BioAssay AID2060617 (Molecular Pharmacology Branch, DTP, NCI, 2025).
Several values for one entry are separate records, joined by “and”; a condition that tells them apart may be missing. Equal values may be shown once.

Tested on: 485368-065-R4-J2-PDC spheroids with HUVEC/MSC, viability
Test: Anticancer human tumor 485368-065-R4-J2-PDC patient-derived pancreatic carcinoma cell line growth inhibition [CLK]
Settings: for viability, T/C: stronger effect = lower value
Method in brief: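 Patient-derived tumor cells grown as complex spheroids with HUVEC endothelial cells and mesenchymal stem cells, treated with drug combinations. Concentrations descend in half-log steps from near clinical Cmax, or from 10 microM if Cmax unknown.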

[1] = curve of first compound, second compound 0.0316 µM
[2] = curve of first compound, second compound 0.1 µM
[3] = curve of first compound, second compound 0.316 µM
[4] = curve of first compound, second compound 1 µM
[5] = curve of first compound, second compound 3.16 µM
[6] = curve of first compound, second compound 10 µM
[7] = second compound 0.0316 µM, first compound 0.0316 µM
[8] = second compound 0.0316 µM, first compound 0.1 µM
[9] = second compound 0.0316 µM, first compound 0.316 µM
[10] = second compound 0.0316 µM, first compound 1 µM
[11] = second compound 0.0316 µM, first compound 3.16 µM
[12] = second compound 0.0316 µM, first compound 10 µM
[13] = second compound 0.1 µM, first compound 0.0316 µM
[14] = second compound 0.1 µM, first compound 0.1 µM
[15] = second compound 0.1 µM, first compound 0.316 µM
[16] = second compound 0.1 µM, first compound 1 µM
[17] = second compound 0.1 µM, first compound 3.16 µM
[18] = second compound 0.1 µM, first compound 10 µM
[19] = second compound 0.316 µM, first compound 0.0316 µM
[20] = second compound 0.316 µM, first compound 0.1 µM
[21] = second compound 0.316 µM, first compound 0.316 µM
[22] = second compound 0.316 µM, first compound 1 µM
[23] = second compound 0.316 µM, first compound 3.16 µM
[24] = second compound 0.316 µM, first compound 10 µM
[25] = second compound 1 µM, first compound 0.0316 µM
[26] = second compound 1 µM, first compound 0.1 µM
[27] = second compound 1 µM, first compound 0.316 µM
[28] = second compound 1 µM, first compound 1 µM
[29] = second compound 1 µM, first compound 3.16 µM
[30] = second compound 1 µM, first compound 10 µM
[31] = second compound 3.16 µM, first compound 0.0316 µM
[32] = second compound 3.16 µM, first compound 0.1 µM
[33] = second compound 3.16 µM, first compound 0.316 µM
[34] = second compound 3.16 µM, first compound 1 µM
[35] = second compound 3.16 µM, first compound 3.16 µM
[36] = second compound 3.16 µM, first compound 10 µM
[37] = second compound 10 µM, first compound 0.0316 µM
[38] = second compound 10 µM, first compound 0.1 µM
[39] = second compound 10 µM, first compound 0.316 µM
[40] = second compound 10 µM, first compound 1 µM
[41] = second compound 10 µM, first compound 3.16 µM
[42] = second compound 10 µM, first compound 10 µM
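Also: spheroids exposed to compounds for seven days.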
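For viability, T/C in this document: 100% = DMSO vehicle control wells.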

`CC1(C)CCC(CN2CCN(c3ccc(C(=O)NS(=O)(=O)c4ccc(NCC5CCOCC5)c([N+](=O)[O-])c4)c(Oc4cnc5[nH]ccc5c4)c3)CC2)=C(c2ccc(Cl)cc2)C1` + CNC(=O)c1ccc(Nc2nc(OC3CCCC3)c3c(-c4ccc5nc(C)oc5c4)c[nH]c3n2)c(OC)c1 gave an IC50 [1] of 7.11 µM, an IC50 [2] of 7.32 µM and an IC50 [3] of 6.86 µM. For the same molecule, the IC50 [4] was 6.75 µM, the IC50 [5] was 6.51 µM and the IC50 [6] was 6.43 µM. The viability, T/C [7] was 101%, the viability, T/C [8] was 95.1% and the viability, T/C [9] was 85.5%. For the same molecule, the viability, T/C [10] was 102%, the viability, T/C [11] was 117% and the viability, T/C [12] was 28.9%. The viability, T/C [13] was 98.2%, the viability, T/C [14] was 97.6% and the viability, T/C [15] was 98.3%. The viability, T/C [16] was 105%, the viability, T/C [17] was 107% and the viability, T/C [18] was 30.8%. For the same molecule, the viability, T/C [19] was 86.7%, the viability, T/C [20] was 89.8% and the viability, T/C [21] was 93.4%. It also gave a viability, T/C [22] of 89.5%, a viability, T/C [23] of 97.1% and a viability, T/C [24] of 29.9%. For the same molecule, the viability, T/C [25] was 74.6%, the viability, T/C [26] was 76% and the viability, T/C [27] was 80.7%. It also gave a viability, T/C [28] of 87.2%, a viability, T/C [29] of 98.7% and a viability, T/C [30] of 32.6%. The viability, T/C [31] was 74%, the viability, T/C [32] was 73.9% and the viability, T/C [33] was 74%. For the same molecule, the viability, T/C [34] was 73.5%, the viability, T/C [35] was 93.5% and the viability, T/C [36] was 33.5%. It also gave a viability, T/C [37] of 72.6%, a viability, T/C [38] of 72% and a viability, T/C [39] of 62.2%. The viability, T/C [40] was 72.6%, the viability, T/C [41] was 90.8% and the viability, T/C [42] was 35.2%.
For `CC(=O)O[C@H]1C(=O)[C@@]2(C)[C@H]([C@H](OC(=O)c3ccccc3)[C@]3(O)C[C@H](OC(=O)[C@H](O)[C@@H](NC(=O)c4ccccc4)c4ccccc4)C(C)=C1C3(C)C)[C@]1(OC(C)=O)CO[C@@H]1C[C@@H]2O` + CN1CCN(c2cc(C(=O)Nc3cc4cc(-c5cnn(C)c5)ccc4cn3)ccn2)CC1, the IC50 [1] was < 0.0316 µM, the IC50 [2] was < 0.0316 µM and the IC50 [3] was < 0.0316 µM. The IC50 [4] was < 0.0316 µM, the IC50 [5] was < 0.0316 µM and the IC50 [6] was < 0.0316 µM. It also gave a viability, T/C [7] of 49.1%, a viability, T/C [8] of 41.3% and a viability, T/C [9] of 38.5%. For the same molecule, the viability, T/C [10] was 46.2%, the viability, T/C [11] was 39.5% and the viability, T/C [12] was 55.3%. The viability, T/C [13] was 37.3%, the viability, T/C [14] was 39.4% and the viability, T/C [15] was 30.8%. For the same molecule, the viability, T/C [16] was 36%, the viability, T/C [17] was 36.8% and the viability, T/C [18] was 45.2%. It also gave a viability, T/C [19] of 30.7%, a viability, T/C [20] of 28.5% and a viability, T/C [21] of 28.2%. For the same molecule, the viability, T/C [22] was 25.4%, the viability, T/C [23] was 28.7% and the viability, T/C [24] was 35.5%. The viability, T/C [25] was 0.77%, the viability, T/C [26] was 0.76% and the viability, T/C [27] was 0.7%. The viability, T/C [28] was 1.78%, the viability, T/C [29] was 1% and the viability, T/C [30] was 1.89%. It also gave a viability, T/C [31] of 2.34%, a viability, T/C [32] of 2.46% and a viability, T/C [33] of 1.31%. It also gave a viability, T/C [34] of 2.13%, a viability, T/C [35] of 1.56% and a viability, T/C [36] of 3.41%. For the same molecule, the viability, T/C [37] was 1.54%, the viability, T/C [38] was 2.06% and the viability, T/C [39] was 2.24%. For the same molecule, the viability, T/C [40] was 1.65%, the viability, T/C [41] was 2.6% and the viability, T/C [42] was 1.89%.
In the case of `CCCS(=O)(=O)Nc1ccc(F)c(C(=O)c2c[nH]c3ncc(-c4ccc(Cl)cc4)cc23)c1F` + CNC(=O)c1ccc(Nc2nc(OC3CCCC3)c3c(-c4ccc5nc(C)oc5c4)c[nH]c3n2)c(OC)c1, the IC50 [1] is reported as > 10 µM, the IC50 [2] is reported as > 10 µM and the IC50 [3] is reported as > 10 µM. The IC50 [4] was > 10 µM, the IC50 [5] was > 10 µM and the IC50 [6] was > 10 µM. The viability, T/C [7] was 92.6%, the viability, T/C [8] was 95.1% and the viability, T/C [9] was 93.2%. For the same molecule, the viability, T/C [10] was 97.5%, the viability, T/C [11] was 91.6% and the viability, T/C [12] was 114%. It also gave a viability, T/C [13] of 100%, a viability, T/C [14] of 99.5% and a viability, T/C [15] of 95.9%. The viability, T/C [16] was 90.1%, the viability, T/C [17] was 98.3% and the viability, T/C [18] was 112%. The viability, T/C [19] was 90%, the viability, T/C [20] was 84.8% and the viability, T/C [21] was 87.9%. The viability, T/C [22] was 85.4%, the viability, T/C [23] was 95.9% and the viability, T/C [24] was 104%. The viability, T/C [25] was 83.5%, the viability, T/C [26] was 80.7% and the viability, T/C [27] was 85.7%. The viability, T/C [28] was 78.9%, the viability, T/C [29] was 89.7% and the viability, T/C [30] was 105%. For the same molecule, the viability, T/C [31] was 70.7%, the viability, T/C [32] was 75.5% and the viability, T/C [33] was 85.4%. For the same molecule, the viability, T/C [34] was 78.9%, the viability, T/C [35] was 95.2% and the viability, T/C [36] was 99.5%. The viability, T/C [37] was 75.7%, the viability, T/C [38] was 73.6% and the viability, T/C [39] was 86.7%. For the same molecule, the viability, T/C [40] was 78.9%, the viability, T/C [41] was 90.1% and the viability, T/C [42] was 93.4%.
`CC1(C)CCC(CN2CCN(c3ccc(C(=O)NS(=O)(=O)c4ccc(NCC5CCOCC5)c([N+](=O)[O-])c4)c(Oc4cnc5[nH]ccc5c4)c3)CC2)=C(c2ccc(Cl)cc2)C1` was tested, and the viability, T/C (compound 0.0316 µM) was 94.5% and 89%, the viability, T/C (compound 0.1 µM) was 101% and 106% and the viability, T/C (compound 0.316 µM) was 98.6% and 95%. For the same molecule, the viability, T/C (compound 1 µM) was 100% and 93.7%, the viability, T/C (compound 3.16 µM) was 120% and 119% and the viability, T/C (compound 10 µM) was 33.1% and 28%. The IC50 (curve of compound) was 7.56 µM and 7.07 µM.
For `Cn1ncnc1[C@H]1c2n[nH]c(=O)c3cc(F)cc(c23)N[C@@H]1c1ccc(F)cc1` + CN1CCN(c2cc(C(=O)Nc3cc4cc(-c5cnn(C)c5)ccc4cn3)ccn2)CC1, the IC50 [1] was > 0.1 µM, the IC50 [2] was > 0.1 µM and the IC50 [3] was 0.0886 µM. For the same molecule, the IC50 [4] was < 0.000316 µM, the IC50 [5] was < 0.000316 µM and the IC50 [6] was < 0.000316 µM. For the same molecule, the viability, T/C (second compound 0.0316 µM, first compound 0.000316 µM) was 99.9%, the viability, T/C (second compound 0.0316 µM, first compound 0.001 µM) was 107% and the viability, T/C (second compound 0.0316 µM, first compound 0.00316 µM) was 105%. It also gave a viability, T/C (second compound 0.0316 µM, first compound 0.01 µM) of 105%, a viability, T/C [7] of 109% and a viability, T/C [8] of 88.7%. The viability, T/C (second compound 0.1 µM, first compound 0.000316 µM) was 108%, the viability, T/C (second compound 0.1 µM, first compound 0.001 µM) was 112% and the viability, T/C (second compound 0.1 µM, first compound 0.00316 µM) was 119%. For the same molecule, the viability, T/C (second compound 0.1 µM, first compound 0.01 µM) was 109%, the viability, T/C [13] was 96.6% and the viability, T/C [14] was 75.9%. It also gave a viability, T/C (second compound 0.316 µM, first compound 0.000316 µM) of 85.2%, a viability, T/C (second compound 0.316 µM, first compound 0.001 µM) of 87.8% and a viability, T/C (second compound 0.316 µM, first compound 0.00316 µM) of 84.1%. The viability, T/C (second compound 0.316 µM, first compound 0.01 µM) was 72.2%, the viability, T/C [19] was 55.9% and the viability, T/C [20] was 49.2%. The viability, T/C (second compound 1 µM, first compound 0.000316 µM) was 1.46%, the viability, T/C (second compound 1 µM, first compound 0.001 µM) was 0.88% and the viability, T/C (second compound 1 µM, first compound 0.00316 µM) was 1.83%. The viability, T/C (second compound 1 µM, first compound 0.01 µM) was 0.77%, the viability, T/C [25] was 1.6% and the viability, T/C [26] was 1.69%. The viability, T/C (second compound 3.16 µM, first compound 0.000316 µM) was 1%, the viability, T/C (second compound 3.16 µM, first compound 0.001 µM) was 1.76% and the viability, T/C (second compound 3.16 µM, first compound 0.00316 µM) was 0.88%. For the same molecule, the viability, T/C (second compound 3.16 µM, first compound 0.01 µM) was 1.07%, the viability, T/C [31] was 1.7% and the viability, T/C [32] was 1.76%. For the same molecule, the viability, T/C (second compound 10 µM, first compound 0.000316 µM) was 2.24%, the viability, T/C (second compound 10 µM, first compound 0.001 µM) was 1.19% and the viability, T/C (second compound 10 µM, first compound 0.00316 µM) was 1.54%. It also gave a viability, T/C (second compound 10 µM, first compound 0.01 µM) of 2.1%, a viability, T/C [37] of 2.02% and a viability, T/C [38] of 1.77%.
